For two compounds, EC50 and Emax results are on record in patent US12421199B2, “Sphingosine 1 phosphate receptor modulators” (RECEPTOS LLC, priority 2020, dated 2025).

pEC50: −log10 of the molar value.

One experiment addresses T1, S1P1 (Homo sapiens, UniProt P21453).
T1 construct: expressed in transfected cells; host or cells: CHO cell membranes
The experiment is described as follows: [35S]-GTPγS binding assay, S1P1. Particulars: CHO-S1P receptor membranes; for Emax: control S1P, read-out: S1P1 % Efficacy. Format: biochemical. On the procedure:
(§1) Binding assays for [35S]-GTPTS were performed in 96-well non-binding surface plates with a final volume of 200 μL. The test compounds were serial diluted in DMSO and added to assay plates using a Tecan D300E digital printer with a total volume of 0.4 μL. The control sphingosine-1-phosphate (S1P) was prepared separately by preparing a 400 μM stock solution from a 100 nmol pellet of S1P in 10 mM Na2CO3 with 2% […]. The serial dilution of S1P was done using complete assay buffer (20 mM HEPES, 10 mM MgCl2, 100 mM NaCl, 1 mM EDTA, 0.1% fatty acid free bovine serum albumin [BSA], and 30 μg/mL saponin, pH7.4) and transferred to wells already containing 0.4 μL DMSO. All the wells were then loaded to a total volume of 40 μL of complete assay buffer, except the non-specific binding (NSB) wells. For NSB wells, 40 µL/well of 50 μM GTPTS (Sigma Aldrich, cat #G8634, St. Louis, MO) was added to wells containing 0.4 μL of DMSO. The assay was started by the addition of 120 μL/well of CHO-S1P receptor membrane solution containing 40 μg/mL of membrane protein, 16.67 μM guanosine diphosphate (GDP; Sigma Aldrich, cat #G7127, St. Louis, MO), and 2.5 mg/mL of WGA PVT SPA beads in complete buffer. Assay plates were then sealed and incubated at room temperature with gentle agitation for 30 minutes. Next, 40 μL/well of 1 nM of [^35S]-GTPTS (PerkinElmer, cat #NEG030X250UC, Waltham, MA) in basic assay buffer (20 mM HEPES, 10 mM MgCl2, 100 mM NaCl, and 1 mM EDTA, pH7.4) was added to the assay plates to yield a final concentration of […] and the plates were further incubated for 40 minutes at room temperature with gentle agitation. The assay was terminated by centrifugation of the plates at 1000 rpm for 3 minutes using an Eppendorf 5810R centrifuge (Eppendorf, Hamburg, Germany) and G protein bound radioactivity was quantitated using a MicroBeta2 microplate scintillation counter (PerkinElmer, Waltham, MA).
(GTPγS is a poorly hydrolysed GTP analogue; its binding reports G protein activation.)

The target in the next experiment is T2, S1P5 (Homo sapiens, UniProt Q9H228).
T2 construct: expressed in transfected cells; host or cells: CHO cell membranes
The experiment is described as follows: [35S]-GTPγS binding assay, S1P5. In kind it is biochemical. Particulars: CHO-S1P receptor membranes; for Emax: control S1P, read-out: S1P5 % Efficacy. The procedure: as §1

T1 sequence (P21453 whole entry, species assumed): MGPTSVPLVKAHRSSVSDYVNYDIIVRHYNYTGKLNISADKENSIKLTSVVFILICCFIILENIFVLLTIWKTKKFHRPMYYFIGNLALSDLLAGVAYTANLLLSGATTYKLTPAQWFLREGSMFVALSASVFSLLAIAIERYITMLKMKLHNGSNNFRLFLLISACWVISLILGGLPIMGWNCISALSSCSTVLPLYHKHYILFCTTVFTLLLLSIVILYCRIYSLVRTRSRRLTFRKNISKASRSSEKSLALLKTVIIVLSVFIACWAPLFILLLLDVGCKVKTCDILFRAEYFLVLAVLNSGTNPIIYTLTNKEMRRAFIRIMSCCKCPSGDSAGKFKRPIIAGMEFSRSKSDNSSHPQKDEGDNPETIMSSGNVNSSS
T2 sequence (Q9H228 whole entry, species assumed): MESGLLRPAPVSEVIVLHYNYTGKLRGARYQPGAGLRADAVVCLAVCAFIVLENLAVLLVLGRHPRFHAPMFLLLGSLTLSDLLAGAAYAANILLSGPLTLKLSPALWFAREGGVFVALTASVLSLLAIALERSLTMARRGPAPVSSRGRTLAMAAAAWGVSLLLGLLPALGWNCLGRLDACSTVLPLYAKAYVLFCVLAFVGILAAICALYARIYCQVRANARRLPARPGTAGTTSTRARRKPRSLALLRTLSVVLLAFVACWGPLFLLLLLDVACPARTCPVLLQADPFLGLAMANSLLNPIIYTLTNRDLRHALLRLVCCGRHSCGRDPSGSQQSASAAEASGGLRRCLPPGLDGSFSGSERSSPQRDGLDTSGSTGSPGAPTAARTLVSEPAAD

`CCC1(O)CCc2c(-c3noc(-c4ccc(OC(C)C)c(C#N)c4)n3)cccc21` (centres unmarked) [compound 3, 5-(3-(1-ethyl-1-hydroxy-2,3-dihydro-1H-inden-4-yl)-1,2,4-oxadiazol-5-yl)-2-isopropoxybenzonitrile]: at S1P1, the pEC50 was 7.85 and the Emax worked out at 97%. On S1P5, the pEC50 is 6.83 and the Emax amounted to 80%.

`CC(C)Oc1ccc(-c2nc(-c3cccc4c3CCC4(O)C(C)C)no2)cc1C#N` (centres unmarked) [compound 4, 5-(3-(1-hydroxy-1-isopropyl-2,3-dihydro-1H-inden-4-yl)-1,2,4-oxadiazol-5-yl)-2-isopropoxybenzonitrile]: the pEC50 was 8.15 at S1P1 and 7.11 at S1P5. Also, the Emax came out at 97% on S1P1 and 74% on S1P5.

Broadly, the pEC50 is the negative decadic logarithm of the EC50, by convention in mol/L. The low end stands for a high EC50, the high end for a low EC50.
